Legend:
Test in all cases: Test D controlled growth environment herbicide test, pre- and postemergence
Format in all cases: in vivo
[1] = system: Russian thistle (Salsola kali)
Method in brief: (§1)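 Pre-emergence: seeds sown in silt loam soil were sprayed with compound in a non-phytotoxic solvent mix containing surfactant. Post-emergence: plants at 2 to 18 cm (1- to 4-leaf stage) in peat moss/vermiculite medium got the same formulation. Visual 0–100 rating versus controls after 14 to 21 d.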

[2] = system: barley, spring (spring barley, Hordeum vulgare)
Method in brief: as §1

[3] = system: bluegrass (annual bluegrass, Poa annua)
Method in brief: as §1

[4] = system: deadnettle (henbit deadnettle, Lamium amplexicaule)
Method in brief: as §1

[5] = system: field violet (Viola arvensis)
Method in brief: as §1

[6] = system: foxtail, green (green foxtail, Setaria viridis)
Method in brief: as §1

[7] = system: kochia (Kochia scoparia)
Method in brief: as §1

[8] = system: mustard, wild (wild mustard, Sinapis arvensis)
Method in brief: as §1

[9] = system: oat, wild (wild oat, Avena fatua)
Method in brief: as §1

[10] = system: pigweed (Amaranthus retroflexus)
Method in brief: as §1

[11] = system: wheat, spring (spring wheat, Triticum aestivum)
Method in brief: as §1

[12] = system: wheat, winter (winter wheat, Triticum aestivum)
Method in brief: as §1

[13] = system: windgrass (Apera spica-venti)
Method in brief: as §1

[14] = Postemergence, 31 g ai/ha, scale 0 to 100 (0 no effect, 100 complete control)
[15] = Postemergence, 125 g ai/ha, visual rating on scale 0 (no effect) to 100 (complete control), 14 to 21 d
[16] = Postemergence, 250 g ai/ha, scale 0 to 100 (0 no effect, 100 complete control)
[17] = Preemergence, 62 g ai/ha, scale 0 to 100 (0 no effect, 100 complete control)
[18] = Preemergence, 125 g ai/ha, scale 0 to 100 (0 no effect, 100 complete control)
[19] = Preemergence, 250 g ai/ha, scale 0 to 100 (0 no effect, 100 complete control)
[20] = postemergence, 62 g ai/ha, scale 0 to 100, 0 no effect, 100 complete control

Cc1ccc2ccccc2c1-c1c(O)c(C)nn(C)c1=O [Compound 59]
Russian Thistle plant response rating [1, 14]: 80 | Plant response rating, Russian Thistle [1, 15]: 85 | Plant response rating, Russian Thistle [1, 16]: 85 | Plant response rating (scale of 0 to 100), Russian Thistle ([1]; Preemergence, 31 g ai/ha): 40 | Plant response rating, Russian Thistle [1, 17]: 50 | Plant response rating, Russian Thistle [1, 18]: 80 | Plant response rating, Russian Thistle [1, 19]: 90 | Plant response rating, Russian Thistle [1, 20]: 80 | Barley, Spring plant response rating [2, 14]: 25 | Plant response rating, Barley, Spring [2, 15]: 40 | Plant response rating, Barley, Spring [2, 16]: 60 | Plant response rating (scale of 0 to 100), Barley, Spring ([2]; Preemergence, 31 g ai/ha): 5 | Plant response rating, Barley, Spring [2, 17]: 25 | Plant response rating, Barley, Spring [2, 18]: 40 | Plant response rating, Barley, Spring [2, 19]: 60 | Plant response rating, Barley, Spring [2, 20]: 30 | Bluegrass plant response rating [3, 14]: 25 | Plant response rating, Bluegrass [3, 15]: 55 | Plant response rating, Bluegrass [3, 16]: 75 | Plant response rating (scale of 0 to 100), Bluegrass ([3]; Preemergence, 31 g ai/ha): 30 | Plant response rating, Bluegrass [3, 17]: 50 | Plant response rating, Bluegrass [3, 18]: 75 | Plant response rating, Bluegrass [3, 19]: 80 | Plant response rating, Bluegrass [3, 20]: 40 | Deadnettle plant response rating [4, 14]: 80 | Plant response rating, Deadnettle [4, 15]: 90 | Plant response rating, Deadnettle [4, 16]: 100 | Plant response rating (scale of 0 to 100), Deadnettle ([4]; Preemergence, 31 g ai/ha): 50 | Plant response rating, Deadnettle [4, 17]: 90 | Plant response rating, Deadnettle [4, 18]: 90 | Plant response rating, Deadnettle [4, 19]: 100 | Plant response rating, Deadnettle [4, 20]: 80 | Field Violet plant response rating [5, 14]: 75 | Plant response rating, Field Violet [5, 15]: 95 | Plant response rating, Field Violet [5, 16]: 95 | Plant response rating (scale of 0 to 100), Field Violet ([5]; Preemergence, 31 g ai/ha): 80 | Plant response rating, Field Violet [5, 17]: 90 | Plant response rating, Field Violet [5, 18]: 95 | Plant response rating, Field Violet [5, 19]: 100 | Plant response rating, Field Violet [5, 20]: 80 | Foxtail, Green plant response rating [6, 14]: 65 | Plant response rating, Foxtail, Green [6, 15]: 75 | Plant response rating, Foxtail, Green [6, 16]: 85 | Plant response rating (scale of 0 to 100), Foxtail, Green ([6]; Preemergence, 31 g ai/ha): 55 | Plant response rating, Foxtail, Green [6, 17]: 75 | Plant response rating, Foxtail, Green [6, 18]: 85 | Plant response rating, Foxtail, Green [6, 19]: 100 | Plant response rating, Foxtail, Green [6, 20]: 70 | Kochia plant response rating [7, 14]: 95 | Plant response rating, Kochia [7, 15]: 95 | Plant response rating, Kochia [7, 16]: 100 | Plant response rating (scale of 0 to 100), Kochia ([7]; Preemergence, 31 g ai/ha): 20 | Plant response rating, Kochia [7, 17]: 60 | Plant response rating, Kochia [7, 18]: 95 | Plant response rating, Kochia [7, 19]: 100 | Plant response rating, Kochia [7, 20]: 95 | Mustard, Wild plant response rating [8, 14]: 90 | Plant response rating, Mustard, Wild [8, 15]: 100 | Plant response rating, Mustard, Wild [8, 16]: 100 | Plant response rating (scale of 0 to 100), Mustard, Wild ([8]; Preemergence, 31 g ai/ha): 95 | Plant response rating, Mustard, Wild [8, 17]: 95 | Plant response rating, Mustard, Wild [8, 18]: 100 | Plant response rating, Mustard, Wild [8, 19]: 100 | Plant response rating, Mustard, Wild [8, 20]: 100 | Oat, Wild plant response rating [9, 14]: 80 | Plant response rating, Oat, Wild [9, 15]: 95 | Plant response rating, Oat, Wild [9, 16]: 98 | Plant response rating (scale of 0 to 100), Oat, Wild ([9]; Preemergence, 31 g ai/ha): 90 | Plant response rating, Oat, Wild [9, 17]: 90 | Plant response rating, Oat, Wild [9, 18]: 95 | Plant response rating, Oat, Wild [9, 19]: 100 | Plant response rating, Oat, Wild [9, 20]: 90 | Pigweed plant response rating [10, 14]: 80 | Plant response rating, Pigweed [10, 15]: 100 | Plant response rating, Pigweed [10, 16]: 100 | Plant response rating (scale of 0 to 100), Pigweed ([10]; Preemergence, 31 g ai/ha): 95 | Plant response rating, Pigweed [10, 17]: 100 | Plant response rating, Pigweed [10, 18]: 100 | Plant response rating, Pigweed [10, 19]: 100 | Plant response rating, Pigweed [10, 20]: 85 | Wheat, Spring plant response rating [11, 14]: 40 | Plant response rating, Wheat, Spring [11, 15]: 70 | Plant response rating, Wheat, Spring [11, 16]: 80 | Plant response rating (scale of 0 to 100), Wheat, Spring ([11]; Preemergence, 31 g ai/ha): 35 | Plant response rating, Wheat, Spring [11, 17]: 65 | Plant response rating, Wheat, Spring [11, 18]: 80 | Plant response rating, Wheat, Spring [11, 19]: 85 | Plant response rating, Wheat, Spring [11, 20]: 45 | Wheat, Winter plant response rating [12, 14]: 35 | Plant response rating, Wheat, Winter [12, 15]: 55 | Plant response rating, Wheat, Winter [12, 16]: 80 | Plant response rating (scale of 0 to 100), Wheat, Winter ([12]; Preemergence, 31 g ai/ha): 10 | Plant response rating, Wheat, Winter [12, 17]: 35 | Plant response rating, Wheat, Winter [12, 18]: 70 | Plant response rating, Wheat, Winter [12, 19]: 80 | Plant response rating, Wheat, Winter [12, 20]: 40 | Windgrass plant response rating [13, 14]: 75 | Plant response rating, Windgrass [13, 15]: 80 | Plant response rating, Windgrass [13, 16]: 85 | Plant response rating (scale of 0 to 100), Windgrass ([13]; Preemergence, 31 g ai/ha): 85 | Plant response rating, Windgrass [13, 17]: 85 | Plant response rating, Windgrass [13, 18]: 100 | Plant response rating, Windgrass [13, 19]: 100 | Plant response rating, Windgrass [13, 20]: 80
